Test results: ChEMBL document CHEMBL4043103, “Design, synthesis, and biological evaluation of some novel indolizine derivatives as dual cyclooxygenase and lipoxygenase inhibitor for anti-inflammatory activity” (Bioorg Med Chem, 2017)

How the values were obtained:
[1] = Solubility of the compound in methanol by shake-flask method; assay type: physicochemical
[2] = Solubility of the compound in chloroform by shake-flask method; assay type: physicochemical
[3] = organism: Rattus norvegicus; assay: animal or person; details: Wistar, po, read-out: INH
[4] = Solubility of the compound in DMSO by shake-flask method; assay type: physicochemical
[5] = organism: Rattus norvegicus; assay: animal or person; details: Wistar, po, read-out: INH; remark: listed apart in the source
[6] = organism: Rattus norvegicus; assay: animal or person; details: Wistar, po, read-out: INH; remark: listed apart in the source
[7] = Solubility of the compound in acetone by shake-flask method; assay type: physicochemical
[8] = organism: Rattus norvegicus; assay: animal or person; details: Wistar, po, read-out: INH; remark: listed apart in the source
[9] = n-Octanol-water partition coefficient, log P of the compound by shake-flask method; assay type: physicochemical
[10] = Solubility of the compound in ethanol by shake-flask method; assay type: physicochemical
[11] = Solubility of the compound in water by shake-flask method; assay type: physicochemical; details: buffer
[12] = target: T1, Prostaglandin G/H synthase 2 (Homo sapiens, UniProt P35354)
T1 sequence (P35354 whole entry): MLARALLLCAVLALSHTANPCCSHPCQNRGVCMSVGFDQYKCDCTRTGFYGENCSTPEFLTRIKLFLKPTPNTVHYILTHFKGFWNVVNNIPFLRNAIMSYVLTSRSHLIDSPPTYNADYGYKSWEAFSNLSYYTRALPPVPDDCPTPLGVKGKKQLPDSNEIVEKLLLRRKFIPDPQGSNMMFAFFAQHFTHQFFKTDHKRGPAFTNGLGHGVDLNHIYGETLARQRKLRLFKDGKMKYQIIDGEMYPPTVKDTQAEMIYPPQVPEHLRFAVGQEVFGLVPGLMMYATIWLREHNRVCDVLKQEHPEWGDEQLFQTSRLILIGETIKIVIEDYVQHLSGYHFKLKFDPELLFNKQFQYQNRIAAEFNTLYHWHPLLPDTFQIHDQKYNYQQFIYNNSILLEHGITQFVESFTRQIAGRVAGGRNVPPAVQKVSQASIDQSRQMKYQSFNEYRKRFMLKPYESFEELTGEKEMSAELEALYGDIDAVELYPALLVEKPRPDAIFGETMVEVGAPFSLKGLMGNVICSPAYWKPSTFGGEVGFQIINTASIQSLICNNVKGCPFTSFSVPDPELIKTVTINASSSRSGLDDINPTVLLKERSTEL
Description: Inhibition of human COX-2 preincubated for 5 mins followed by arachidonic acid substrate addition by colorimetric enzyme immunoassay

[13] = target: T1, Prostaglandin G/H synthase 2; assay: Non noncompetitive inhibition of human COX-2 preincubated for 5 mins followed by arachidonic acid substrate addition by Lineweaver-Burk plot analysis
[14] = target: T2, Prostaglandin G/H synthase 1 (Ovis aries, UniProt P05979)
T2 sequence (P05979 whole entry): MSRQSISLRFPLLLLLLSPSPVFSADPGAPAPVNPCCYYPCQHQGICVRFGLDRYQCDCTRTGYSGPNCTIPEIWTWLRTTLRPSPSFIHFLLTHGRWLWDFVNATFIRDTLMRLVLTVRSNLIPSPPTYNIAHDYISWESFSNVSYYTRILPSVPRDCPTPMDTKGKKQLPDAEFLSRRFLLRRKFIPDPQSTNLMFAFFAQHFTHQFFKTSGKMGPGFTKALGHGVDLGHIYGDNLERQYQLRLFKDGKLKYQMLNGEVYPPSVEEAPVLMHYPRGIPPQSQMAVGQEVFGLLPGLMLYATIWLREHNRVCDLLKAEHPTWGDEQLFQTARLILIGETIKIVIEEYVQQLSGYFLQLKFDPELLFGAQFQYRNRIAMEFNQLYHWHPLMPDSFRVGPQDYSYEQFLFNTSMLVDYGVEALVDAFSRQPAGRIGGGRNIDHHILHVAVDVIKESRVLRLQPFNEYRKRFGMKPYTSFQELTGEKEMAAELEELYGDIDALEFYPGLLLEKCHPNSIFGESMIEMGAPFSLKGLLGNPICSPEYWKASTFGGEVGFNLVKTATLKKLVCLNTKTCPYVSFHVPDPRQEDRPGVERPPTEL
Description: Inhibition of ovine COX-1 preincubated for 5 mins followed by arachidonic acid substrate addition by colorimetric enzyme immunoassay

[15] = Inhibition of soybean lipoxygenase preincubated for 5 mins followed by linoleic acid substrate addition measured after 20 mins by spectrophotometric method; parameters: species or system Glycine max
[16] = Non noncompetitive inhibition of soybean lipoxygenase preincubated for 5 mins followed by substrate addition measured after 20 mins by Lineweaver-Burk plot analysis; parameters: species or system Glycine max
[17] = organism: Rattus norvegicus; assay: Gastrointestinal toxicity in adjuvant-induced Wistar rat arthritis model assessed as ulcer index treated for 7 days measured on day 21 post arthritis induction; details: in vivo, 168 h
[18] = system: RAW264.7; assay: Anti-inflammatory activity in mouse RAW264.7 cells assessed as reduction in LPS-induced NO production by Griess assay; assay type: functional, cell-based
[19] = system: Rattus norvegicus; assay: Anti inflammatory activity in carrageenan-induced Wistar rat paw edema model assessed as inhibition of left hind paw edema size at 10 mg/kg, po pretreated for 1 hr followed by carrageenan challenge measured after 4 hrs by plethysmometry method (reference value: 0%); assay type: functional
[20] = system: Rattus norvegicus; assay: Anti inflammatory activity in carrageenan-induced Wistar rat paw edema model assessed as inhibition of left hind paw edema size at 10 mg/kg, po pretreated for 1 hr followed by carrageenan challenge measured after 2 hrs by plethysmometry method (reference value: 0%); assay type: functional
[21] = system: Rattus norvegicus; assay: Anti inflammatory activity in carrageenan-induced Wistar rat paw edema model assessed as inhibition of left hind paw edema size at 10 mg/kg, po pretreated for 1 hr followed by carrageenan challenge measured after 6 hrs by plethysmometry method (reference value: 0%); assay type: functional
[22] = system: Rattus norvegicus; assay: Anti inflammatory activity in arachidonic acid-induced Wistar rat paw edema model assessed as inhibition of right hind paw edema thickness at 10 mg/kg, po pretreated for 30 mins followed by arachidonic acid challenge measured after 1 hr (reference value: 0%); assay type: functional

SMILES	solubility [1]	solubility [2]	inhibition in vivo at 10 mg/kg [3]	solubility [4]	inhibition in vivo at 10 mg/kg [5]	inhibition in vivo at 10 mg/kg [6]	solubility [7]	inhibition in vivo at 10 mg/kg [8]	logP [9]	solubility [10]	solubility [11]	UI [17]	other results
NCc1c(-c2ccc(C(F)(F)F)cc2)c(C(=O)O)c2ccccn12	Soluble	Insoluble	42.8%	Soluble	40%	67.7%	Soluble	62.8%	2.06	Soluble	Soluble	–	–
Cc1c(C(=O)O)c2ccccn2c1CN	Soluble	Insoluble	41.3%	Soluble	23.1%	38.5%	Soluble	44.2%	0.72	Soluble	Soluble	–	–
CCCCc1c(C(=O)O)c2ccccn2c1CN	Soluble	Insoluble	23.8%	Soluble	15.4%	23.9%	Soluble	24.4%	2.07	Soluble	Soluble	–	–
NCc1c(-c2ccccc2)c(C(=O)O)c2ccccn12	Soluble	Insoluble	68.2%	Soluble	66.2%	88.6%	Soluble	90.5%	1.85	Soluble	Soluble	10	IC50 [12]: 14.9 µM; Ki [13]: 0.92 µM; IC50 [14]: > 50 µM; IC50 [15]: 13.1 µM; Ki [16]: 0.72 µM
CCc1c(C(=O)O)c2ccccn2c1CN	Soluble	Insoluble	30.2%	Soluble	20.2%	34.3%	Soluble	32.5%	1.45	Soluble	Soluble	–	–
NCc1c(-c2ccc(F)cc2)c(C(=O)O)c2ccccn12	Soluble	Insoluble	69.8%	Soluble	61.5%	86.4%	Soluble	89.5%	2.12	Soluble	Soluble	–	–
Cc1ccc2n1[C@@H]1[C@H]3O[C@]([C@H](C)O)(C=C2)[C@H]1c1cc([C@H]2C=Cc4ccc(C)n4[C@@H]2C)cn1[C@@H]3C	–	–	–	–	–	–	–	–	–	–	–	–	IC50 [18]: 5.31 µM
COc1cc(-c2c(C(=O)O)c3ccccn3c2CN)ccc1O	Soluble	Insoluble	50.8%	Soluble	36.9%	59.4%	Soluble	63.9%	1.55	Soluble	Soluble	–	–
NCc1c(-c2ccc3c(c2)OCO3)c(C(=O)O)c2ccccn12	Soluble	Insoluble	61.9%	Soluble	23.1%	78.1%	Soluble	74.4%	2.07	Soluble	Soluble	–	–
Cc1ccc(-c2cc(C(F)(F)F)nn2-c2ccc(S(N)(=O)=O)cc2)cc1 [CELECOXIB]	–	–	–	–	–	–	–	–	–	–	–	53	–
O=C(O)Cc1ccccc1Nc1c(Cl)cccc1Cl [DICLOFENAC]	–	–	–	–	–	–	–	–	–	–	–	46	inhibition in vivo at 10 mg/kg [19]: 91.6%; inhibition in vivo at 10 mg/kg [20]: 74.6%; inhibition in vivo at 10 mg/kg [21]: 90.9%
CC1(C)Cc2c(-c3ccccc3)c(-c3ccc(Cl)cc3)c(CC(=O)O)n2C1 [LICOFELONE]	–	–	–	–	–	–	–	–	–	–	–	–	IC50 [14]: 0.16 µM; IC50 [15]: 0.21 µM
CC(c1cc2ccccc2s1)N(O)C(N)=O (stereo not given) [ZILEUTON]	–	–	–	–	–	–	–	–	–	–	–	52	inhibition in vivo at 10 mg/kg [22]: 72.3%; IC50 [15]: 3.43 µM
